Read-outs that look alike come from different tables or passages of the source.
Tests used:
[1] = test system: IEC6 cells; test: Cell viability assay, IEC6; type: cell-based; settings: Rattus norvegicus
Experimental: (§1) Cell viability assay: LNCap, 22Rv1, MCF7, MDAMB361, T47D, and IEC6 cells are seeded at a density of 500-2000 cells/well in 96 well plates, and a ‘T0’ (timepoint 0) was included along with the assay plate. The plates are then incubated at 37° C., 5% CO2 in a cell culture incubator overnight. On the next day, the ‘T0’ plate was assayed using CellTiterGlo (Promega, Inc) according to the manufacturer's instructions. The appropriate compounds are diluted in DMSO and added to the assay plate (final DMSO concentration of 0.1-0.2%) on the next day. The assay plates are incubated for 6 days at 37° C., 5% CO2. After the incubation period, the plates are assayed using CellTiterGlo (Promega, Inc) according to the manufacturer's instructions and luminescence was read on the EnVision plate reader. Inhibition of the tested compounds was determined by the following formula: Inhibition rate (%)=(1−(RLU compound−RLU day0)/(RLU control−RLU day0))*100%. GraphPadPrism was used to analyze the data and determine GI50/IC50 values.

[2] = target: ER (Homo sapiens (Human), UniProt P03372); test: ER antagonism assay; type: cell-based; settings: SK-BR-3 cells transfected with ERE plasmid and ER, 100 nM β-Estradiol, 24 h
Experimental: ER antagonism assay: To evaluate ER antagonist activity, SK-BR-3 cells were seeded at a density of 30000 cells/well in the assay plate. The assay plate was then incubated at 37° C., 5% CO2 for 24 h. A mixture of ERE plasmid and ER in opti-MEM media was incubated with lipofectamine 3000 in Opti-MEM media and incubated at room temperature for 15 mins. 10 μl of this transfection mix was added to each well of the assay plate and the assay plate was incubated at 37° C., 5% CO2 for 24 h. 100 nM β-Estradiol in 10 μL medium or 10 μL medium (control wells) was added to corresponding wells of assay plate and incubated at 37° C. 5% CO2 for 24 h. After the incubation period, 50 μl of Dual-glo luciferase reagent was added to the assay plate and mixed at room temperature for 20 mins on an orbital shaker, before reading out on the EnVision plate reader. 50 μL of Stop & Glo reagent was added to assay plate, mixed at room temperature for 20 minutes, and read on the Envision plate reader.

[3] = test system: MDAMB361 cells; test: Cell viability assay, MDAMB361; type: cell-based; settings: Homo sapiens
Experimental: as §1

[4] = target: ER Alpha-ligand binding domain (LBD) (Homo sapiens (Human), UniProt P03372); test: ER binding assay (LanthaScreen TR-FRET ER Alpha Competitive Binding); settings: Fluormone ES2 Green tracer 3 nM, 2 h room temperature
Experimental: ER binding assay: ERα binding was assessed using the LanthaScreen® TR-FRET ER Alpha Competitive Binding kit from ThermoFisherScientific. In this assay, a terbium-labeled anti-GST antibody was used to indirectly label GST-tagged ER Alpha-ligand binding domain (LBD) by binding to its GST tag. Competitive binding to the ER Alpha-LBD (GST) was detected by a test compound's ability to displace a fluorescent ligand (Fluormone™ ES2 Green tracer) from the ER Alpha-LBD (GST), which results in a loss of FRET signal between the Tb-anti-GST antibody and the tracer. Briefly, to assess ER binding of the DDC compounds, the test compounds (top dose 10 μM, 4 fold serial dilution, 8 point dose response) and controls were transferred to the assay plate. The Fluormone™ ES2 Green tracer (3 nM final concentration with assay buffer) was added to the assay plate. This was followed by addition of a mixture of the ER Alpha-LBD (GST) and terbium anti-GST antibody. After a 2 h incubation period at room temperature, the plate was read on the Envision plate reader and the TR-FRET ratio of 520:495 emissions were calculated and used to determine the IC50 from a dose response curve of the compound.

[5] = test system: MCF7 cells; test: Cell viability assay, MCF7; type: cell-based; settings: Homo sapiens
Experimental: as §1

[6] = test system: LNCap cells; test: Cell viability assay, LNCap; type: cell-based; settings: Homo sapiens, 144 h; LNCap cells, 6 days, CellTiterGlo; read-out: LNCap (GI50)
Experimental: as §1

[7] = test system: T47D cells; test: Cell viability assay, T47D; type: cell-based; settings: Homo sapiens, 144 h; T47D cells, 6 days, CellTiterGlo; read-out: T47D (GI50)
Experimental: as §1

[8] = MDA-MB-361, 144 h, read-out: MDA-MB-361 (GI50, nM)
[9] = MCF7, 144 h, read-out: MCF7 (GI50, nM)

Sequence of ER Alpha-ligand binding domain (LBD) (P03372 whole entry, looked up, the tested form may be a part): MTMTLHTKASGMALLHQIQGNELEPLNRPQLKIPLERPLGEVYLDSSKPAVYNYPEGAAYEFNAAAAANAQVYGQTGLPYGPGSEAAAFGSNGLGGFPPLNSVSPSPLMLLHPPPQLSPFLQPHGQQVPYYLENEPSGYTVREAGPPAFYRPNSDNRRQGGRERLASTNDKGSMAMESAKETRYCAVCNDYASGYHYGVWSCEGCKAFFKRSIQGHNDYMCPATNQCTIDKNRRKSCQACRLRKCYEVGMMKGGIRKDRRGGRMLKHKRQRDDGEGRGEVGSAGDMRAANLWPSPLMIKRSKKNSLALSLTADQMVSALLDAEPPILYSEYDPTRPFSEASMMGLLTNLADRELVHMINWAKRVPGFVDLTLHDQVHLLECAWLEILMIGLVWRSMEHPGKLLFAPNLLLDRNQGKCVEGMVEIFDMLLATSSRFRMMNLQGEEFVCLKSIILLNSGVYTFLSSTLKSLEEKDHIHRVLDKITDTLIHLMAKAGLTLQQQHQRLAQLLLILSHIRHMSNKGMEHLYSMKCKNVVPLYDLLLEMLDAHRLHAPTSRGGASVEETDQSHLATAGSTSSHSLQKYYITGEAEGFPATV
Sequence of ER (P03372 whole entry, looked up): as the sequence (P03372 whole entry, looked up, the tested form may be a part) above

Structure (SMILES) | IC50 ([1]; IEC-6, 144 h, read-out: IEC-6 (IC50, nM)) [nM] | IC50 [2] [µM] | GI50 [3, 8] [nM] | IC50 [4] [µM] | GI50 [5, 9] [nM] | IC50 ([1]; 144 h, IEC-6 cells, 6 days, CellTiterGlo, read-out: IEC-6 (IC50)) [nM] | GI50 [6] [µM] | GI50 ([3]; 144 h, MDA-MB-361 cells, 6 days, CellTiterGlo, read-out: MDA-MB-361 (GI50)) [nM] | GI50 [7] [µM] | GI50 ([5]; 144 h, MCF7 cells, 6 days, CellTiterGlo, read-out: MCF7 (GI50)) [nM]
CC[C@@]1(O)C(=O)OCc2c1cc1n(c2=O)Cc2cc3c(CN(C)C)c(OC(=O)N4CCN(CCCCCCOc5cc(F)c(C6c7[nH]c8ccccc8c7CC(C)N6CC(C)(C)F)c(F)c5)CC4)ccc3nc2-1 (stereo in doubt) [Compound 13, (S)-10-((Dimethylamino)methyl)-4-ethyl-4-hydroxy-3,14-dioxo-3,4,12,14-tetrahydro-1H-pyrano[3′,4′:6,7]indolizino[1,2-b]quinolin-9-yl 4-(6-(3,5-difluoro-4-((1S,3S)-2-(2-fluoro-2-methylpropyl)-3-methyl-2,3,4,9-tetrahydro-1H-pyrido[3,4-b]indol-1-yl)phenoxy)hexyl)piperazine-1-carboxylate] | 501 to 1000 | 0.01 to 0.5 | 10 to 500 | 0.01 to 0.5 | 10 to 500 |  |  |  |  | 
CCc1c2c(nc3ccc(OC(=O)N4CCN(C(=O)CCCCCOc5cc(F)c([C@@H]6c7[nH]c8ccccc8c7C[C@@H](C)N6CC(C)(C)F)c(F)c5)CC4)cc13)-c1cc3c(c(=O)n1C2)COC(=O)[C@]3(O)CC [Compound 1, (S)-4,11-diethyl-4-hydroxy-3,14-dioxo-3,4,12,14-tetrahydro-1H-pyrano[3′,4′:6,7]indolizino[1,2-b]quinolin-9-yl 4-(6-(3,5-difluoro-4-((1R,3R)-2-(2-fluoro-2-methylpropyl)-3-methyl-2,3,4,9-tetrahydro-1H-pyrido[3,4-b]indol-1-yl)phenoxy)hexanoyl)piperazine-1-carboxylate] |  | 0.01 to 0.5 | 10 to 500 | < 0.01 | 10 to 500 |  |  |  |  | 
CCc1c2c(nc3ccc(OC(=O)N4CCN(CCCCCCOc5cc(F)c([C@@H]6c7[nH]c8ccccc8c7C[C@@H](C)N6CC(C)(C)F)c(F)c5)CC4)cc13)-c1cc3c(c(=O)n1C2)COC(=O)[C@]3(O)CC [Compound 2, (S)-4,11-diethyl-4-hydroxy-3,14-dioxo-3,4,12,14-tetrahydro-1H-pyrano[3′,4′:6,7]indolizino[1,2-b]quinolin-9-yl 4-(6-(3,5-difluoro-4-((1R,3R)-2-(2-fluoro-2-methylpropyl)-3-methyl-2,3,4,9-tetrahydro-1H-pyrido[3,4-b]indol-1-yl)phenoxy)hexyl)piperazine-1-carboxylate] |  | 0.01 to 0.5 | 10 to 500 | < 0.01 | 10 to 500 |  |  |  |  | 
CC[C@@]1(O)C(=O)OCc2c1cc1n(c2=O)Cc2cc3c(CN4CCN(C(=O)CCCCCN(C)c5ccc([C@H]6C[C@@]7(C)[C@@H](CC[C@]7(OC(C)=O)C(C)=O)[C@@H]7CCC8=CC(=O)CCC8=C76)cc5)CC4)c(O)ccc3nc2-1 [Compound 19, (8S,11R,13S,14S,17R)-17-Acetyl-11-(4-((6-(4-(((S)-4-ethyl-4,9-dihydroxy-3,14-dioxo-3,4,12,14-tetrahydro-1H-pyrano[3′,4′:6,7]indolizino[1,2-b]quinolin-10-yl)methyl)piperazin-1-yl)-6-oxohexyl)(methyl)amino)phenyl)-13-methyl-3-oxo-2,3,6,7,8,11,12,13,14,15,16,17-dodecahydro-1H-cyclopenta[a]phenanthren-17-yl Acetate] |  |  |  |  |  | > 1000 | 0.01 to 0.5 | 10 to 500 | 0.01 to 0.5 | 10 to 500

— patent publication US11834458B2, “Anti-cancer nuclear hormone receptor-targeting compounds” (Nuvation Bio Inc., priority 2021, dated 2023)
